The values below come from patent US20250009755A1, “COMPOSITIONS AND METHODS FOR THE TREATMENT OF OCULAR DISEASES AND INJURIES” (Ohio State Innovation Foundation, priority 2021, published 2025).

The subject of one series is HUVECs. The series is described as follows: H2O2-induced tubule formation in HUVECs co-cultured with ARPE-19 cells (Calcein AM). In kind it is cell-based, human. The note with it: 200 μM H2O2; 10 μg/mL NPs or 5 μg/mL bevacizumab; vs positive control. Here is the method: Under oxidative stress induced by 200 μM H2O2, ARPE-19 cells were co-cultured with human umbilical vein endothelial cells (HUVECs) to investigate the influence of H2O2 and drug-loaded PDA NPs on the development of the three-dimensional capillary structure. Exposure to H2O2 induced secretion of VEGF and tubule formation. Cells were then incubated with 5 μg/mL native bevacizumab control or 10 μg/mL NPs with and without anti-VEGF. […] The reaction of PDA NPs with H2O2 also simultaneously degraded (FIG. 6B) and triggered drug release (FIG. 7), favorable for spatiotemporal control of release at disease sites.

In a further series the target is T1, C3 (Homo sapiens, UniProt P01024).
T1 construct: host or cells: endogenous C3 of study patients
As to conditions: intravitreal injection, Phase 2 FILLY; cited from earlier work.

For series [1] the following is noted: cited from earlier work.
The next series has as its target T2, C5 (Homo sapiens, UniProt P01031).
T2 construct: host or cells: endogenous C5 of study patients
As to conditions: intravitreal injections, Phase 2/3 GATHER1; cited from earlier work.

In another series the test system is VEGF-A. The note with it: wet AMD patients; cited from earlier work.
VEGF-A, sequence (P15692 207-311 limits assumed): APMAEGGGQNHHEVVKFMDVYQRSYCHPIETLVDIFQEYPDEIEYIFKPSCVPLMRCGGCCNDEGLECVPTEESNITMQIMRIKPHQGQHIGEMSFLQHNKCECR

T2 sequence (P01031 19-673 limits assumed): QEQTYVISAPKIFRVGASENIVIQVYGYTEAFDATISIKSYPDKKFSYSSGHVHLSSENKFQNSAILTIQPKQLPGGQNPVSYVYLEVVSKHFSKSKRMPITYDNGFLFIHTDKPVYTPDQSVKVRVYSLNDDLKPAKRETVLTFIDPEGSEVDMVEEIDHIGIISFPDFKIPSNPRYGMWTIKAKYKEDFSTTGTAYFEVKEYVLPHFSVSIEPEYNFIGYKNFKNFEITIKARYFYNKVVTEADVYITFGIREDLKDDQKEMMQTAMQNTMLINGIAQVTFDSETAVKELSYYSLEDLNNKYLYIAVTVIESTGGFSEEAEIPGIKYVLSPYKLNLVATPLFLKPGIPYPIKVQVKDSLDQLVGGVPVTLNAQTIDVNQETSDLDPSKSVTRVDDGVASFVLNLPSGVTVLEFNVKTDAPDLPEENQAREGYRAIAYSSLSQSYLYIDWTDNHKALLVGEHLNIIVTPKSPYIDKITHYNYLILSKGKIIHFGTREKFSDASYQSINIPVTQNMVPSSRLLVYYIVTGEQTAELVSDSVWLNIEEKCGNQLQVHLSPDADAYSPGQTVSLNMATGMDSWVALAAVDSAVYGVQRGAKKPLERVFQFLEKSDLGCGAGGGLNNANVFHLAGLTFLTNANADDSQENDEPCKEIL
T2 sequence (P01031 678-1676 limits assumed): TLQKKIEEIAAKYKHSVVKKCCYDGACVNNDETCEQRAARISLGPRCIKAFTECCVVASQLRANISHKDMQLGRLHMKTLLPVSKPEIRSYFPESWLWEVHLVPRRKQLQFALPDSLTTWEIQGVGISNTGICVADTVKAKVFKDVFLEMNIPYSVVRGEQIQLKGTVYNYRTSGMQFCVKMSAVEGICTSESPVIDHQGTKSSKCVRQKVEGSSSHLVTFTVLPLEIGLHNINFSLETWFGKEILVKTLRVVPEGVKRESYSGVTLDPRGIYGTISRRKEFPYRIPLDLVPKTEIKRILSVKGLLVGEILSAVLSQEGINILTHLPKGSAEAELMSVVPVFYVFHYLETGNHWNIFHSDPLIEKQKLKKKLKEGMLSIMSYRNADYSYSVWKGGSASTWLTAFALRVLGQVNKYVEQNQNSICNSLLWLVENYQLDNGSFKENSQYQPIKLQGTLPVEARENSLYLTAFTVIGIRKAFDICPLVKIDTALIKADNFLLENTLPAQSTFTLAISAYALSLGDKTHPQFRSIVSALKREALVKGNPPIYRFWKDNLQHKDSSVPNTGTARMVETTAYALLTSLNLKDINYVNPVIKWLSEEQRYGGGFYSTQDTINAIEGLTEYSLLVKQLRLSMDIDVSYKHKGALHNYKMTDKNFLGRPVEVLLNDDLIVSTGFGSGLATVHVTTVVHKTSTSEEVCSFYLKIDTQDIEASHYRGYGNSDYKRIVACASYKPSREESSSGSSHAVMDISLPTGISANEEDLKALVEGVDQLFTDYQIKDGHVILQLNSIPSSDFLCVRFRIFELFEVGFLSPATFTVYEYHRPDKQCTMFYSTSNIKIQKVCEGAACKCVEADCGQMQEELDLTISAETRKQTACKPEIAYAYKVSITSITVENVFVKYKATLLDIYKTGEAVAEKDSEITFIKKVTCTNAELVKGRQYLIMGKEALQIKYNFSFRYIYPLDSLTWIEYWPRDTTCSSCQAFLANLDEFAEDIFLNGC
T1 sequence (P01024 23-667 limits assumed): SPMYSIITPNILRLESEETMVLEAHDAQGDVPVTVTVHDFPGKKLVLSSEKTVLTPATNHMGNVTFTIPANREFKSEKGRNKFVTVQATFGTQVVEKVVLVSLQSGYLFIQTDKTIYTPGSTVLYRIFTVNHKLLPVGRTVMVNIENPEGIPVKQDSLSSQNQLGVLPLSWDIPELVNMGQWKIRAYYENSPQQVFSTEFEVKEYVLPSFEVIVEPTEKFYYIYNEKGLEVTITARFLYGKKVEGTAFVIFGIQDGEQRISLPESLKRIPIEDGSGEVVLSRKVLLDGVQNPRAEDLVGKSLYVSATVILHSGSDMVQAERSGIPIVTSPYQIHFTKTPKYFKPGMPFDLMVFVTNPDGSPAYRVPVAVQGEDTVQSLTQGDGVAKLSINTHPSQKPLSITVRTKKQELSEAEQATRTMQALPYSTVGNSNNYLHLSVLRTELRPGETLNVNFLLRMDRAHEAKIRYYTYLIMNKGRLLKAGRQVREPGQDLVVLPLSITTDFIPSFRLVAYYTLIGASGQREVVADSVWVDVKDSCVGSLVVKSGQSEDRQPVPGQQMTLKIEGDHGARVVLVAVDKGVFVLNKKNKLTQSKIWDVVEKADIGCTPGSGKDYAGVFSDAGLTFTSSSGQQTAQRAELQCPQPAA
T1 sequence (P01024 672-1663 partner limits assumed): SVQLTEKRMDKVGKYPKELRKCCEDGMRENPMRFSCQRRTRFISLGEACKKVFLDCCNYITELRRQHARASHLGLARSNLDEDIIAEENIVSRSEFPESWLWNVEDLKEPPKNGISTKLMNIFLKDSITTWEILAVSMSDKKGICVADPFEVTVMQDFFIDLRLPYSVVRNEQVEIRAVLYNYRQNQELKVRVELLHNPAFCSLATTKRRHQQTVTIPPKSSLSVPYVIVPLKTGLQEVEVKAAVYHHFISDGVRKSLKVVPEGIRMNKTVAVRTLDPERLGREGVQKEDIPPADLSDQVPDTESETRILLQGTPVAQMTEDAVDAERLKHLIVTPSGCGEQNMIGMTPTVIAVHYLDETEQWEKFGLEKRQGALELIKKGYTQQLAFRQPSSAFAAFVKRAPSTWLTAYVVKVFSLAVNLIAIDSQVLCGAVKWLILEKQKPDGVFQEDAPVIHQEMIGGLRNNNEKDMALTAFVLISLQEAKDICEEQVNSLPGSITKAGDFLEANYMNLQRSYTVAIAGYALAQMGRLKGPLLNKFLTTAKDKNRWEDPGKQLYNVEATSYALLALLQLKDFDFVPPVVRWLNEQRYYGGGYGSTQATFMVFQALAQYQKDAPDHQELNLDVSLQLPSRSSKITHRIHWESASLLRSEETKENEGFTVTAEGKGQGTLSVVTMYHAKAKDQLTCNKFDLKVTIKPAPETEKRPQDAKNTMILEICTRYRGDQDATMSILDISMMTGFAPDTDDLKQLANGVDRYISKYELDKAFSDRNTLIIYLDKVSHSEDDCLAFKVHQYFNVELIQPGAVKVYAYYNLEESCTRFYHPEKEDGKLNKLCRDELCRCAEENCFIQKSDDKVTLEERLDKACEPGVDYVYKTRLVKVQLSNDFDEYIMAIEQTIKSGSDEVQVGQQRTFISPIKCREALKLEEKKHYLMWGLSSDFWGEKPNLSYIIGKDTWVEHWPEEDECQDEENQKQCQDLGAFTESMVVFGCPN

As for “bevacizumab: a monoclonal antibody that inhibits VEGF-A”, the “tubule formation in HUVECs” value with HUVECs is recorded as “significant decrease”.

Consider pegcetacoplan, for which the GA growth rate result at C3 is listed as “significantly reduced GA growth rate”. For the compound `C=CC1=C(C)c2cc3[n-]c(cc4[n-]c(cc5nc(cc1n2)C(C)=C5C=C)c(C)c4CCC(=O)O)c(CCC(=O)O)c3C.[Fe+2]` [Heme], the aqueous solubility entry in series [1] is “insoluble in aqueous solution”. Regarding avacincaptad pegol, the GA growth rate result at C5 is reported as “significantly reduced GA growth rate”. As to “RAN: monoclonal antibody fragment with strong affinity to VEGF-A”, the “patients with improved vision” value in the series on VEGF-A is 29%-40%.
